Experimental data as given in ChEMBL document CHEMBL3603800, “Novel methyl substituted 1-(5,6-dihydro-[1,2,4]triazolo[4,3-a]pyrazin-7(8H)-yl)methanones are P2X7 antagonists” (Bioorg Med Chem Lett, 2015).
Converted amounts (≈) assume the structure as drawn.

What was measured:
[1] = Solubility in pH 7 solution; format: physicochemical
[2] = biological target: Voltage-gated inwardly rectifying potassium channel KCNH2 (Homo sapiens, UniProt Q12809); assay: Displacement of [3H]-astemizole from human ERG channel expressed in HEK293 cells by radioligand competition binding assay; format: cell-based
Voltage-gated inwardly rectifying potassium channel KCNH2, sequence (Q12809 whole entry): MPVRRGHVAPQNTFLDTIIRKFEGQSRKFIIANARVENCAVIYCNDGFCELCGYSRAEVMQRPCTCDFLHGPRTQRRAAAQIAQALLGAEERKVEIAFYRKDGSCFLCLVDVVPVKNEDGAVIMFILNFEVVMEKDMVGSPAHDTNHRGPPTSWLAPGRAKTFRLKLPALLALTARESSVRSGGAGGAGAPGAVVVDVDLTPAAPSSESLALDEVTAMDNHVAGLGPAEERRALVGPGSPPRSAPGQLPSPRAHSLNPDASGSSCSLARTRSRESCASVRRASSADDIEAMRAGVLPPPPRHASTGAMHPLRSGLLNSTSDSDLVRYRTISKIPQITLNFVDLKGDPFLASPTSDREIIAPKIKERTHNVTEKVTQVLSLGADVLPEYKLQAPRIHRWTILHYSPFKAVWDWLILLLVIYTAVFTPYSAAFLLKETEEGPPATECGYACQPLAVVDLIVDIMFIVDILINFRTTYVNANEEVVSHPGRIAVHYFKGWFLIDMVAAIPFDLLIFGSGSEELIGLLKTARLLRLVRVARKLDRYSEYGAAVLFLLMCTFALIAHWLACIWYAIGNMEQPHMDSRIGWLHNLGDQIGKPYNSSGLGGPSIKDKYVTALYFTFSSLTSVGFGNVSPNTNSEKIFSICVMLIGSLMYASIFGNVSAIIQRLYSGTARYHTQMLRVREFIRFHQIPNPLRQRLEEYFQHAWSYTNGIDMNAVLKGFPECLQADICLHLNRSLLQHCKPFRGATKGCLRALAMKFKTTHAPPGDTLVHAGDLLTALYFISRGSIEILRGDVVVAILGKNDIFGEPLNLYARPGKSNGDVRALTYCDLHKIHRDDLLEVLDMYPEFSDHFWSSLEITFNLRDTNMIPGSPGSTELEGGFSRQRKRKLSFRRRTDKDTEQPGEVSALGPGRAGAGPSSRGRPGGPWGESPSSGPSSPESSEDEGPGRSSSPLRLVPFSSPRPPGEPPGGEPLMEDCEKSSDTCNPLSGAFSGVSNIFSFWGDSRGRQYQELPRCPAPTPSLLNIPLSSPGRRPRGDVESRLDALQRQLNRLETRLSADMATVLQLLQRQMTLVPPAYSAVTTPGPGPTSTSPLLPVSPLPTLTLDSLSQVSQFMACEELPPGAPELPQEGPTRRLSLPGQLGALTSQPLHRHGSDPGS

[3] = Drug level in brain of Sprague-Dawley rat at 30 mg/kg, po after 2 hrs; format: ADME, organism-based; details: read-out: Drug uptake
[4] = Apparent permeability from apical to basolateral side in human Caco2 cells; format: ADME, cell-based; details: Caco-2
[5] = Protein binding in rat brain; format: ADME, tissue-based; details: read-out: PB (converted)
[6] = Protein binding in rat plasma; format: ADME, cell-free; details: read-out: PPB (converted)
[7] = Protein binding in human plasma; format: ADME, cell-free; details: read-out: PPB (converted)
[8] = test system: Rattus norvegicus; assay: Ex-vivo P2X7 receptor occupancy in Sprague-Dawley rat brain assessed as inhibition of [3H]A804598 binding at 30 mg/kg, po after 2 hrs by autoradiographic analysis; format: functional
[9] = Drug level in brain of Sprague-Dawley rat at 30 mg/kg, po after 0.5 hrs; format: ADME, organism-based; details: read-out: Drug uptake
[10] = Apparent permeability from basolateral to apical side in human Caco2 cells; format: ADME, cell-based; details: Caco-2
[11] = Drug level in plasma of Sprague-Dawley rat at 30 mg/kg, po after 2 hrs; format: ADME, organism-based
[12] = Drug level in plasma of Sprague-Dawley rat at 30 mg/kg, po after 0.5 hrs; format: ADME, organism-based
[13] = test system: Rattus norvegicus; assay: Ex-vivo P2X7 receptor occupancy in Sprague-Dawley rat brain assessed as inhibition of [3H]A804598 binding at 30 mg/kg, po after 0.5 hrs by autoradiographic analysis; format: functional
[14] = Drug level in plasma of Sprague-Dawley rat at 10 mg/kg, after 0.5 hrs
[15] = test system: Rattus norvegicus; assay: Ex-vivo P2X7 receptor occupancy in Sprague-Dawley rat brain assessed as inhibition of [3H]A804598 binding at 10 mg/kg, sc after 0.5 hrs by autoradiographic analysis
[16] = Drug level in brain of Sprague-Dawley rat at 10 mg/kg, sc after 0.5 hrs; details: read-out: Drug uptake
[17] = Drug level in plasma of Sprague-Dawley rat at 10 mg/kg, sc after 2 hrs
[18] = test system: Rattus norvegicus; assay: Ex-vivo P2X7 receptor occupancy in Sprague-Dawley rat brain assessed as inhibition of [3H]A804598 binding at 10 mg/kg, po after 2 hrs by autoradiographic analysis; format: functional

| solubility [1] [µM] | concentration at 2 h [3] [µg/mL] | Papp A→B [4] [nm/s] | fraction unbound [5] | fraction unbound [6] | fraction unbound [7] | concentration at 0.5 h [9] [µg/mL] | Papp B→A [10] [nm/s] | concentration at 2 h [11] [µg/mL] | concentration at 0.5 h [12] [µg/mL] | concentration at 0.5 h [14] [µg/mL] | concentration at 0.5 h [16] [µg/mL] | concentration at 2 h [17] [µg/mL] | Compound | IC50 [2] [µM] | Occ [8] [%] | Occ [13] [%] | Occ [15] [%] | Occ [18] [%] |
| --- | --- | --- | --- | --- | --- | --- | --- | --- | --- | --- | --- | --- | --- | --- | --- | --- | --- | --- |
|  | 12.6 | 373 | 0.07 | 0.078 | 0.131 | 6.74 | 532 | 2.68 | 1.46 |  |  |  | C[C@H]1Cn2c(nnc2-c2ccc(F)cc2)CN1C(=O)c1cccc(C(F)(F)F)c1Cl |  | 73 | 89 |  |  |
|  |  |  |  | 0.449 | 0.51 |  |  |  |  |  |  |  | C[C@H]1Cn2c(nnc2-c2ccccn2)CN1C(=O)c1cccc(Cl)c1Cl |  |  |  |  |  |
| 260 (≈ 109 µg/mL) |  |  |  | 0.07 | 0.174 |  |  |  |  | 1.08 | 3.88 | 0.374 | COc1ccnc(-c2nnc3n2C[C@H](C)N(C(=O)c2cccc(Cl)c2Cl)C3)c1 | > 10 |  |  | 78 | 71 |
| 350 (≈ 142 µg/mL) |  |  |  | 0.09 | 0.254 |  |  |  |  |  |  |  | C[C@H]1Cn2c(nnc2-c2cc(F)ccn2)CN1C(=O)c1cccc(Cl)c1Cl |  |  |  |  |  |

Further lines, the compound ahead of its results:

| Compound | solubility [1] [µM] | concentration at 2 h [3] [µg/mL] | Papp A→B [4] [nm/s] | fraction unbound [5] | fraction unbound [6] | fraction unbound [7] | concentration at 0.5 h [9] [µg/mL] | Papp B→A [10] [nm/s] | concentration at 2 h [11] [µg/mL] | concentration at 0.5 h [12] [µg/mL] | concentration at 0.5 h [14] [µg/mL] | concentration at 0.5 h [16] [µg/mL] | concentration at 2 h [17] [µg/mL] | IC50 [2] [µM] | Occ [8] [%] | Occ [13] [%] | Occ [15] [%] | Occ [18] [%] |
| --- | --- | --- | --- | --- | --- | --- | --- | --- | --- | --- | --- | --- | --- | --- | --- | --- | --- | --- |
| C[C@@H]1c2nnc(-c3ccccn3)n2CCN1C(=O)c1cccc(Cl)c1Cl | > 400 | 2.5 | 734 | 0.11 | 0.069 | 0.175 | 5.51 | 521 | 0.942 | 2.52 |  |  |  | > 10 | 56 | 68 |  |  |
| C[C@H]1Cn2c(nnc2-c2ccc(F)cc2)CN1C(=O)c1cccc(Cl)c1Cl | 158 (≈ 64 µg/mL) | 0.142 | 433 | 0.09 | 0.078 | 0.115 | 1.56 | 416 | 0.027 | 0.252 |  |  |  |  | 5 | 92 |  |  |
| C[C@H]1Cn2c(nnc2-c2cnccn2)CN1C(=O)c1cccc(C(F)(F)F)c1Cl |  |  |  |  | 0.302 | 0.302 |  |  |  |  |  |  |  |  |  |  |  |  |
